In patent EP0327365B1, “Improvements in or relating to modified haptens useful as imaging and therapeutic agents” (HYBRITECH INCORPORATED, priority 1988, dated 1989):

Legend:
antibody CHA255 = experiment: Antibody CHA255 binding assay (Centrifree ultrafiltration); set-up: species or system BALB/c mice; details: ⁹⁰Y³⁺ or ¹¹¹In³⁺ chelate of DTPA alone
Experimental: As indicated, the monoclonal antibody CHA255 is specific for the In³⁺-benzyl EDTA complex. The affinity and characterization have been described previously in Nature, 316, 265 (1985). Binding assays were performed to verify the identity of the haptens designated as DB-I to DB-VIII. […] For the ⁹⁰Y³⁺ hapten chelate, in particular, CHA255 binding required the presence of the In-benzyl-EDTA moiety as provided in the compounds of the invention. The labeled DB hapten chelates were combined with antibody CHA255 in PBS (10 mM sodium phosphate, 150 mM sodium chloride, pH 7.4) containing 44 »g/ml of human serum albumin and 0.05% Triton-X-100 detergent. Concentrations of the radiolabeled hapten chelating agent and antibody are 5 nM and 133 nM, respectively. The mixture is vortexed and allowed to stand at room temperature for 15 minutes, after which it is transferred to an Amicon Centrifree™ device, with a NMW limit of 30,000, and centrifuged to separate antibody-bound chelate from free hapten chelate. The species bound to the antibody is retained by the membrane and the free chelate flows through the membrane into the filtrate. The extent of antibody-hapten chelate binding is then determined.

[1] = Aqueous solubility (observation during synthesis); assay type: physicochemical; details: metal-free chelating agent, in words
T-380 tumors [2] = experiment: Hapten biodistribution, premix protocol with bifunctional antibody ECH037.2; assay type: in vivo, nude mice; set-up: TOTAL RECOV: unit not given here; details: for % DOSE PER GRAM, KIDNEY / % DOSE PER GRAM, LIVER / % DOSE PER GRAM, TUMOR / FECES / TOTAL RECOV / URINE / % DOSE PER GRAM, BLOOD / TUMOR/BLOOD: premix with 20 µg ECH037.2; for % DOSE PER GRAM, BLOOD: 111In-labeled hapten i.v.; for TUMOR/BLOOD: ratio; for Percent Injected Dose in Feces: premix protocol (Table VI)
Experimental: (§1) Two protocols were used for examining the biodistribution of the derivatized haptens in the presence of the bifunctional antibody ECH037.2. In a premix protocol, ECH037.2 and the derivatized hapten were combined prior to injection in the animals. In the prelocalization protocol, ECH037.2 was injected into the animals, and the antibody was allowed to prelocalize for 24 hours prior to injection of the radiolabeled hapten.
(§2) Biodistribution studies were performed in nude mice carrying subcutaneous implants of the human colon carcinoma cell line T-380 which expresses the carcinoembryonic antigen (CEA) recognized by ECH037.2. Briefly, Balb/C Nu/Nu mice were injected subcutaneously with a minced preparation of T-380 tumor implants and maintained for approximately two weeks, or until the tumor implant had grown to a size of approximately 0.5 grams as described by Hagan, P.L., et al. J. Nuc. Med., 26 1418-1423 (1985). Mice were kept in a sterile environment to prevent complications due to bacterial or viral infections. Biodistributions were performed as described by Halpern, S., et al., Cancer Res. 43, 5347-5355 (1983). Briefly, the radiolabeled haptens were injected intravenously in […], and the pharmacokinetics were evaluated at several time points post-injection. At these times, mice were sacrificed and weighed. Organs were removed, their weight recorded, and each organ was then washed in sterile PBS, pH 7.0, and fixed in formalin solution. Samples of blood, urine and feces also were collected and their weight similarly recorded. The organs, or a portion thereof, were transferred to clean tubes and their radioactive content was determined in a well-type gamma-counter.
(§3) Relative radioactive content of each organ was expressed as a percentage of injected dose per organ.
To indium-label the haptens of the invention 10 »l of 0.1 mM ligand was combined with X »l of ¹¹¹InCl₃ (in 50 mM HCl) and (x+10) »l of 0.26 M ammonium citrate, pH 6.0. X is calculated by the following equation: X = (200 »Ci)/(A »Ci/»l) [formula] where A is the specific activity of the ¹¹¹In.
The labeling was done in an acid-washed microfuge tube. After combining all of the components above, the solution was vortexed and allowed to stand at room temperature for 15 minutes.
Incorporation of the ¹¹¹In into the chelating agent was determined by TLC on silica in a methanol/aqueous ammonium acetate solvent system as described by Meares, et al. (Anal. Biochem., 142, 68-75 (1984)). Greater than 95% incorporation of the radioactivity into the chelate was required for the sample to be submitted for a biodistribution assay.
Prior to injection the ¹¹¹In-labeled hapten was diluted into freshly prepared isotonic sodium bicarbonate (1.39% w/v) containing 1 mg/ml normal human serum albumin (Buminate, 25% solution, Travenol Laboratories, Glendale, California) to which the bifunctional antibody had been added. The final composition of the solution was 0.2 mg/ml ECH037.2, 0.5 »M chelate, 0.1 »Ci/»l ¹¹¹In, all in a volume of 2.0 ml. For the biodistribution studies, 100 »l of the solution was injected into the tail vein of each animal.

T-380 tumors [3] = experiment: Hapten biodistribution, prelocalization protocol with bifunctional antibody ECH037.2; assay type: in vivo, nude mice
Experimental: as §1, §2, §3
To indium-label the chelating agents for the prelocalization protocol, 5 »l of 0.1 mM chelating agent was combined with X »l of ¹¹¹InCl₃ (in 50 mM HCl) and (x+5) »l of 0.26 M ammonium citrate, pH 6.0. X was calculated by the following equation: X = 200 »Ci/A »Ci/»l [formula] where A is the specific activity of the ¹¹¹InCl₃ solution. The solution was vortexed and allowed to stand at room temperature for 15 minutes, after which incorporation of ¹¹¹In label into the chelating agent was determined as described for the premix protocol. If at least 95 percent of the ¹¹¹In was bound by the chelating agent, the material was then diluted to a final volume of 2 ml with isotonic (1.39 percent, w/v) sodium bicarbonate containing 1 mg/ml normal human serum albumin. This material (100 »l) then was injected into each tail vein of mice which had each been injected 24 hours earlier with 5 »g of ECH037.2 in 100 »l isotonic sodium bicarbonate containing 1 mg/ml normal human serum albumin.

[4] = test system: monoclonal antibody CHA255; experiment: Determination of hapten-antibody dissociation rates; assay type: binding, BALB/c mice; details: 22°C; indium complex of hapten from CHA255 after 100 fold excess of indium-115 loaded hapten
Experimental: Hapten-antibody dissociation rates were determined using monoclonal antibody CHA255, prepared as described in Example 2A, by measuring the quantity of ¹¹¹In³⁺ chelate released from the antibody hapten complex as a function of time after addition of a 100 fold excess (over antibody binding sites) of indium-115 loaded hapten. Thus, for each hapten, a 700 »l solution was prepared containing: antibody at a concentration of 160 nM; indium loaded hapten, trace labeled with ¹¹¹In (total concentration = 160 nM); normal human serum albumin at a total concentration of 1.5 mg/mL; and isotonic phosphate buffered saline, (10 mM PO₄²⁻, 150 mM NaCl, pH 7.2). Indium-115 loaded hapten was added to a final Concentration of […]. Reactions were stirred by placing the sample containers ir a rack mounted on a vortexer head.
At various times after addition of the excess hapten, […] portions of the reaction solutions were transferred to Centrifree tubes (Amicon Corperation, Danvers, Massachusetts) and centrifuged at 1500xg for eight to ten minutes. The reaction time was taken to be the time between addition of the excess hapten and the time the centrifuge reached the desired velocity. Six timepoints, each in duplicate, were obtained over a range of about two reaction half-lives for each rate constant determination. A 200 »l portion from each centrifuged and uncentrifuged solution was then counted for ¹¹¹In. The relative concentration of free hapten was taken to be the ratio of counts in the centrifuged solution to the uncentrifuged solution at each timepoint. Times were recorded to the nearest tenth of a minute.
Room temperature rate constants were measured without the aid of a constant temperature bath. The ambient temperature remained at 22°±1 C.
Rate constants and standard deviations were obtained from a plot of the logarithm of relative complex concentration vs. time. Data were analyzed using the linear regression module of the RS/1 Program (BBN Software Products Corporation, Cambridge, Massachusetts).
Control samples were included in each experiment to determine: A) that the initial condition of 100% of labeled hapten bound to antibody was met, and B) that in the absence of antibody, 100% of counts were able to penetrate the Centrifree membrane. […]

% DOSE PER GRAM, KIDNEY (T-380 tumors [2]; 24 hours) | % DOSE PER GRAM, LIVER (T-380 tumors [2]; 24 hours) | % DOSE PER GRAM, TUMOR (T-380 tumors [2]; 24 hours) | FECES (T-380 tumors [2]; 24 hours) | TOTAL RECOV (T-380 tumors [2]; 24 hours) | URINE (T-380 tumors [2]; 24 hours) | % DOSE PER GRAM, BLOOD (T-380 tumors [2]; 24 hours) | TUMOR/BLOOD (T-380 tumors [2]; 24 hours) | Percent Injected Dose in Feces (T-380 tumors [2]; 24 hrs.) | % DOSE PER GRAM, KIDNEY (T-380 tumors [2]; 48 hours) | % DOSE PER GRAM, LIVER (T-380 tumors [2]; 48 hours) | % DOSE PER GRAM, TUMOR (T-380 tumors [2]; 48 hours) | FECES (T-380 tumors [2]; 48 hours) | TOTAL RECOV (T-380 tumors [2]; 48 hours) | URINE (T-380 tumors [2]; 48 hours) | % DOSE PER GRAM, BLOOD (T-380 tumors [2]; 48 hours) | TUMOR/BLOOD (T-380 tumors [2]; 48 hours) | Percent Injected Dose in Feces (T-380 tumors [2]; 48 hrs.) | Structure (SMILES) | further results
 |  |  |  |  |  |  |  |  |  |  |  |  |  |  |  |  |  | O=C(O)CN(CCN(CC(=O)O)CC(=O)O)CCN(CC(=O)O)CC(=O)O [DTPA, diethylenetriaminepentaacetic acid] | binding to CHA255 (antibody CHA255): neither ⁹⁰Y³⁺ or ¹¹¹In³⁺ DTPA, alone, bound to CHA255
0.5 % DOSE PER GRAM | 0.8 % DOSE PER GRAM | 1.1 % DOSE PER GRAM | 56.5% of total injected dose | 68.9 | 8.9% of total injected dose | 1.1 % DOSE PER GRAM | 1.00 | 56.5 Percent Injected Dose | 0.2 % DOSE PER GRAM | 0.6 % DOSE PER GRAM | 0.7 % DOSE PER GRAM | 68.4% of total injected dose | 81.4 | 10.9% of total injected dose | 0.5 % DOSE PER GRAM | 1.40 | 68.4 Percent Injected Dose | CCCCCCCCNC(=S)Nc1ccc(CC(CN(CC(=O)O)CC(=O)O)N(CC(=O)O)CC(=O)O)cc1 (centres unmarked) [OTUBE] | aqueous solubility [1]: Low aqueous solubility; amount of hapten in the tumor (T-380 tumors [2]; 24 hrs., premix protocol): 1.1 percent injected dose/gram; injected material excreted in the feces (T-380 tumors [2]; 48 hrs. post injection, premix protocol): 68.4% of the injected material; amount of hapten in the tumor (T-380 tumors [2]; 48 hrs., premix protocol): 0.7 percent injected dose/gram
1.2 % DOSE PER GRAM | 1.7 % DOSE PER GRAM | 8.4 % DOSE PER GRAM | 22.0% of total injected dose | 59.7 | 21.7% of total injected dose | 6.2 % DOSE PER GRAM | 1.35 | 22.0 Percent Injected Dose | 0.8 % DOSE PER GRAM | 1.1 % DOSE PER GRAM | 6.9 % DOSE PER GRAM | 34.9% of total injected dose | 66.4 | 22.4% of total injected dose | 3.7 % DOSE PER GRAM | 1.86 | 34.9 Percent Injected Dose | O=C(O)Cc1ccc(NC(=S)Nc2ccc(CC(CN(CC(=O)O)CC(=O)O)N(CC(=O)O)CC(=O)O)cc2)cc1 (centres unmarked) [PHATUBE] | fecal excretion (T-380 tumors [3]; 5 µg ECH037.2 24 hours earlier, all time points (4, 24, 48 hours), Figures 3-5, in words): high degree of fecal excretion; tumor/organ values (T-380 tumors [3]; Figures 6-8 (4, 24, 48 hours), in words): exceptional; t1/2, Dissociation Half-Lives [4]: 1.19 h
